Laboratory results: patent US12264158B2, “Protein kinase MKK4 inhibitors for promoting liver regeneration or reducing or preventing hepatocyte death” (HEPAREGENIX GMBH, priority 2018, dated 2025)

Assays:
[1] = biological target: T1, MKK4 active (Homo sapiens, UniProt P45985); assay: Radiometric protein kinase assay, MKK4 active; type: biochemical; conditions: substrate JNK1 KRKR, ATP 0.2 μM, read-out: MKK4, potency derived from IC50-values
T1 construct: purchased ProQinase #0948-0000-1
T1 sequence (P45985 1-399): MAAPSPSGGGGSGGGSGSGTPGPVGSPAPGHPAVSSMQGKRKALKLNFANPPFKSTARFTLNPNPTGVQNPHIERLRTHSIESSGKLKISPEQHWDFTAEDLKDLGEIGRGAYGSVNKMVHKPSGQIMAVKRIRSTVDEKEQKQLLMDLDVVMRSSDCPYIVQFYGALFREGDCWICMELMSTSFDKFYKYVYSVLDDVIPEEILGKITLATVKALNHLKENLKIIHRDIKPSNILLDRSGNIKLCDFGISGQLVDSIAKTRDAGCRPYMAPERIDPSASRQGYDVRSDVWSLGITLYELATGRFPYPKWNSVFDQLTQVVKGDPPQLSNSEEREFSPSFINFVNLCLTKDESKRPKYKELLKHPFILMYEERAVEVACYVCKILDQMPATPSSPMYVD
Protocol: (§1) A radiometric protein kinase assay was used for measuring the kinase activity of the respective protein kinases. All kinase assays were performed in 96-well polypropylene plates. After the reactions were stopped, the assay mixtures were transferred to 96-well MSFC filter-plates (Millipore). The reaction mix was passed through the filter membrane by aspiration, the membrane was washed 3 times with 150 mM H3PO4, once with ethanol, dried and liquid scintillation cocktail was added. Radioactivity was determined by counting of the samples in a Microbeta multiwell scintillation counter (Wallac).

[2] = biological target: BRaf (Homo sapiens, UniProt P15056); assay: KINOMEscan competition binding assay, selectivity against off-target BRaf; conditions: concentration of 100 nM
Protocol: (§2) The assay was performed by combining three components: DNA-tagged kinase; immobilized ligand; and a test compound. The ability of the test compound to compete with the immobilized ligand was measured via quantitative PCR of the DNA tag. The technology is described in detail in Fabian, M. A. et al. A small molecule-kinase interaction map for clinical kinase inhibitors. Nat. […] M. W. et al. A quantitative analysis of kinase inhibitor selectivity, Nat.
(§3) The test compounds were provided as 10 mM stock solutions. The test solutions at indicated final concentrations were prepared at DiscoverX.

[3] = biological target: T2, JNK1 (Homo sapiens, UniProt P45983); assay: KINOMEscan competition binding assay, selectivity against off-target JNK1; conditions: concentration of 100 nM
T2 construct: M1/Q384; host or cells: HEK-293
Protocol: as §2
(§4) For investigation of the affinity to MKK4, MKK7 and JNK1, the kinases were produced in HEK-293 cells and subsequently tagged with DNA for qPCR detection. […] The liganded beads were blocked with excess biotin and washed with blocking buffer (SEABLOCK™ (Pierce), 1% BSA, 0.05% TWEEN®20, 1 mM DTT) to remove unbound ligand and to reduce nonspecific binding. […] All reactions were performed in polystyrene 96-well plates in a final volume of 0.135 mL. […] The kinase concentration in the eluates was measured by qPCR.
as §3

[4] = biological target: T3, MKK7 (Homo sapiens, UniProt O14733); assay: KINOMEscan competition binding assay, selectivity against off-target MKK7; conditions: concentration of 100 nM
T3 construct: M1/R419; host or cells: HEK-293
T3 sequence (O14733 1-419): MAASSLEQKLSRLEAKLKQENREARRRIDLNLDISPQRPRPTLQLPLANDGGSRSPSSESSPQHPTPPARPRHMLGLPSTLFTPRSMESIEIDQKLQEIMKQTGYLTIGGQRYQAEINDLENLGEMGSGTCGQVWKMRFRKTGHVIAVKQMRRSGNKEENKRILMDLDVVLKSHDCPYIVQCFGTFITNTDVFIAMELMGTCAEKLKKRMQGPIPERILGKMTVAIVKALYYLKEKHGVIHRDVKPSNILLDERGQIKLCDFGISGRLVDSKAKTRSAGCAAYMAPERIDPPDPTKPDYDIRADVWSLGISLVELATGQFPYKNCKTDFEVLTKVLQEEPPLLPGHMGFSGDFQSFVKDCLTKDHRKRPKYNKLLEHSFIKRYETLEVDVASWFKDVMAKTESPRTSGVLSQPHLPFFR
Protocol: as §2, §4, §3

[5] = biological target: T4, MKK4 (Homo sapiens, UniProt P45985); assay: KINOMEscan competition binding assay, MKK4 potency; conditions: concentration of 100 nM
T4 construct: S84/D399; host or cells: HEK-293
T4 sequence (P45985 84-399): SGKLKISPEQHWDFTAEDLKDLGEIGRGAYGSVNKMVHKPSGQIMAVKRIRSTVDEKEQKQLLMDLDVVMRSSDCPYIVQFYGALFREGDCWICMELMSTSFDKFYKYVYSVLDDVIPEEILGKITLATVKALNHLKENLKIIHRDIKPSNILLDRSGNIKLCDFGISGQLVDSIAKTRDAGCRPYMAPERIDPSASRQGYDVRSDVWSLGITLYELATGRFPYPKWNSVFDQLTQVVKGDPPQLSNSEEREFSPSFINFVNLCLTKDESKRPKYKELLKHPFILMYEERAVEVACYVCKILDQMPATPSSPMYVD
Protocol: as §2, §4, §3

[6] = biological target: T5, MEKK2 (Homo sapiens, UniProt Q9Y2U5); assay: Radiometric protein kinase assay, MEKK2; type: biochemical; conditions: substrate Casein, ATP 0.2 μM; read-out: MEKK2, potency derived from IC50-values
T5 construct: purchased ProQinase #0583-0000-1
T5 sequence (Q9Y2U5 1-619): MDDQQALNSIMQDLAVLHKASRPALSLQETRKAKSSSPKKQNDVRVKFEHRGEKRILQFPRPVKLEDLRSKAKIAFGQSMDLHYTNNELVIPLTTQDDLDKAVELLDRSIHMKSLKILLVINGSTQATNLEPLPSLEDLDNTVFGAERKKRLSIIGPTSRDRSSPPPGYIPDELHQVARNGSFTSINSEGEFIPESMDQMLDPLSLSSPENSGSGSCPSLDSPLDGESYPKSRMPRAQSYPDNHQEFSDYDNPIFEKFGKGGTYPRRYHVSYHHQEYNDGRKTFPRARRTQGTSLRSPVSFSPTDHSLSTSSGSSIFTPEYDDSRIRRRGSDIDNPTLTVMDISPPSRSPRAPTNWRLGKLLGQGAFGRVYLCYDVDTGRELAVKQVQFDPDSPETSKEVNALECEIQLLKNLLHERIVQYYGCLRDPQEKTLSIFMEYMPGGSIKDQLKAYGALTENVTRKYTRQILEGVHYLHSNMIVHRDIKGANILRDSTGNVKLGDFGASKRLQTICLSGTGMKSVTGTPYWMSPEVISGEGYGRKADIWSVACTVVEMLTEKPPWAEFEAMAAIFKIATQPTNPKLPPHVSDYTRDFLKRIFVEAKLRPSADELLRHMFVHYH
Protocol: as §1

Sequence of BRaf (P15056 whole entry): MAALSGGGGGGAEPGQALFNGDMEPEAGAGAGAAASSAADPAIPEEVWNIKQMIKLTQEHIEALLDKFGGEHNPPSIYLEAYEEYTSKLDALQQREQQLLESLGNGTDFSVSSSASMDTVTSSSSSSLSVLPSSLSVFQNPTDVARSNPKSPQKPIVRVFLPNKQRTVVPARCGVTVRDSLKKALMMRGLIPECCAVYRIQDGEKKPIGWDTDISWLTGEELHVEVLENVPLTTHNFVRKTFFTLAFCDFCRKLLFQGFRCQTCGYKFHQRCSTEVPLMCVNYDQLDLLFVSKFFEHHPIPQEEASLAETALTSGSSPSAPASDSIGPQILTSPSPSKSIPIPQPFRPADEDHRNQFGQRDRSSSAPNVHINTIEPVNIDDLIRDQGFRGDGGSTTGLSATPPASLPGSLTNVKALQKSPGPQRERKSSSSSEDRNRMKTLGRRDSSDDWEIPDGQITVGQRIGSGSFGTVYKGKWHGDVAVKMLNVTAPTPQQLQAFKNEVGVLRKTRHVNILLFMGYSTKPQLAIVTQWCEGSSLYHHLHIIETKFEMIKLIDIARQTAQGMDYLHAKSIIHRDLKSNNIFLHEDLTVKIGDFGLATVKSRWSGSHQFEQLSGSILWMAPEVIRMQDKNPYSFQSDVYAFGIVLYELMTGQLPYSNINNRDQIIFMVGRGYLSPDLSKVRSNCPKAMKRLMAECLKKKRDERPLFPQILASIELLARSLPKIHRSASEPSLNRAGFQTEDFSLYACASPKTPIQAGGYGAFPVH
T2 sequence (P45983 1-384 isoform P45983-2): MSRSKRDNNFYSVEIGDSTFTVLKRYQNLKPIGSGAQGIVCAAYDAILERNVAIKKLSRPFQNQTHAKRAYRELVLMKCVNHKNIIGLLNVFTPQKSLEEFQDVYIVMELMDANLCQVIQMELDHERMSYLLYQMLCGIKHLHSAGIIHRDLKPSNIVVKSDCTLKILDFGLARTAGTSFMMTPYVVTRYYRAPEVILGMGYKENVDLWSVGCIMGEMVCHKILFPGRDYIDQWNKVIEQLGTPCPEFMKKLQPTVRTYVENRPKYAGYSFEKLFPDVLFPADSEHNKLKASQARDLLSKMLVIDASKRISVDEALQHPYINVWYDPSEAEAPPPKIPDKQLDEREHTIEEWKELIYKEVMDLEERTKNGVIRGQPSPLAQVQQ

SMILES	IC50 [1]	IC50 [6]	also measured
CS(=O)(=O)Nc1c(F)ccc(C(=O)c2n[nH]c3ncc(-c4ccc(-c5nnn[nH]5)cc4)cc23)c1F [Example 54a, N-[2,6-difluoro-3-[5-[4-(1H-tetrazol-5-yl)phenyl]-1H-pyrazolo[3,4-b]pyridine-3-carbonyl]phenyl]methanesulfonamide]	< 500 nM	–	–
CS(=O)(=O)Nc1c(F)ccc(C(=O)c2n[nH]c3ncc(-c4ccc(C(N)=O)cc4)cc23)c1F [Example 54b, 4-[3-[2,4-difluoro-3-(methanesulfonamido)benzoyl]-1H-pyrazolo[3,4-b]pyridin-5-yl]benzamide]	< 500 nM	–	–
CS(=O)(=O)Nc1c(F)ccc(C(=O)c2n[nH]c3ncc(-c4ccc(S(N)(=O)=O)cc4)cc23)c1F [Example 54c, 4-[3-[2,4-difluoro-3-(methanesulfonamido)benzoyl]-1H-pyrazolo[3,4-b]pyridin-5-yl]benzenesulfonamide]	< 500 nM	–	–
CS(=O)(=O)Nc1c(F)ccc(C(=O)c2n[nH]c3ncc(-c4ccc(C(=O)O)cc4)cc23)c1F [Example 55, 4-[3-[2,4-difluoro-3-(methanesulfonamido)benzoyl]-1H-pyrazolo[3,4-b]pyridin-5-yl]benzoic acid]	< 500 nM	–	–
CCCS(=O)(=O)Nc1c(F)ccc(C(=O)c2n[nH]c3ncc(-c4ccc(C(=O)O)cc4)cc23)c1F [Example 62, 4-(3-(2,4-difluoro-3-(propylsulfon-amido)benzoyl)-1H-pyrazolo[3,4-b]pyridin-5-yl)benzoic acid]	< 500 nM	–	Selectivity vs. BRaf, ratio PoC(BRaf)/PoC(MKK4) [2]: +++ (PoC(BRaf)/PoC(MKK4) ≥ 30); Selectivity vs. JNK1, ratio PoC(JNK1)/PoC(MKK4) [3]: +++ (PoC(JNK1)/PoC(MKK4) ≥ 30); Selectivity vs. MKK7, ratio PoC(MKK7)/PoC(MKK4) [4]: +++ (PoC(MKK7)/PoC(MKK4) ≥ 30); MKK4, residual percent of control binding (PoC) [5]: +++ (PoC < 1)
CCCS(=O)(=O)Nc1c(F)ccc(C(=O)c2n[nH]c3ncc(-c4ccccc4Cl)cc23)c1F [Example 64, N-(3-(5-(2-chlorophenyl)-1H-pyrazolo[3,4-b]pyridine-3-carbonyl)-2,6-difluorophenyl)propane-1-sulfonamide]	< 500 nM	–	–
CCCS(=O)(=O)Nc1c(F)ccc(C(=O)c2n[nH]c3ncc(-c4ccc(C(C)C)cc4)cc23)c1F [Example 65, N-(2,6-difluoro-3-(5-(4-isopropyl-phenyl)-1H-pyrazolo[3,4-b]pyridine-3-carbonyl)phenyl)propane-1-sulfonamide]	–	1000 to 10000 nM	–
CCCS(=O)(=O)Nc1c(F)ccc(C(=O)c2n[nH]c3ncc(-c4ccc(F)cc4C)cc23)c1F [Example 66, N-(2,6-difluoro-3-(5-(4-fluoro-2-methylphenyl)-1H-pyrazolo[3,4-b]pyridine-3-carbonyl)phenyl) propane-1-sulfonamide]	–	1000 to 10000 nM	–
O=C(c1ccc(F)c(NS(=O)(=O)Cc2ccccc2)c1F)c1n[nH]c2ncc(-c3ccncc3)cc12 [Example 68, N-[2,6-difluoro-3-(5-pyridin-4-yl-1H-pyrazolo[3,4-b]pyridine-3-carbonyl)phenyl]-1-phenylmethanesulfonamide]	< 500 nM	–	Selectivity vs. BRaf, ratio PoC(BRaf)/PoC(MKK4) [2]: +++ (PoC(BRaf)/PoC(MKK4) ≥ 30); Selectivity vs. JNK1, ratio PoC(JNK1)/PoC(MKK4) [3]: +++ (PoC(JNK1)/PoC(MKK4) ≥ 30); Selectivity vs. MKK7, ratio PoC(MKK7)/PoC(MKK4) [4]: +++ (PoC(MKK7)/PoC(MKK4) ≥ 30); MKK4, residual percent of control binding (PoC) [5]: +++ (PoC < 1)
CCCS(=O)(=O)Nc1c(F)ccc(C(=O)c2n[nH]c3ncc(-c4ccc(S(N)(=O)=O)cc4C)cc23)c1F [Example 70, 4-(3-(2,4-difluoro-3-(propylsulfonamido)benzoyl)-1H-pyrazolo[3,4-b]pyridin-5-yl)-3-methylbenzenesulfonamide]	–	500 to 1000 nM	–
CCCS(=O)(=O)Nc1c(F)ccc(C(=O)c2n[nH]c3ncc(-c4cnc(C(F)(F)F)nc4)cc23)c1F [Example 71, N-(2,6-difluoro-3-(5-(2-(trifluoromethyl)pyrimidin-5-yl)-1H-pyrazolo[3,4-b]pyridine-3-carbonyl)phenyl)propane-1-sulfonamide]	–	> 10000 nM	–
CCCS(=O)(=O)Nc1c(F)ccc(C(=O)c2n[nH]c3ncc(-c4ccc(Cl)cc4C)cc23)c1F [Example 72]	–	1000 to 10000 nM	–
CCCS(=O)(=O)Nc1c(F)ccc(C(=O)c2n[nH]c3ncc(-c4ccc(C5N=NN=N5)cc4)cc23)c1F [Example 74, N-(3-(5-(4-(1H-tetrazol-5-yl)phenyl)-1H-pyrazolo[3,4-b]pyridine-3-carbonyl)-2,6-difluorophenyl)propane-1-sulfonamide]	–	1000 to 10000 nM	–
O=C(c1ccc(F)c(NS(=O)(=O)Cc2ccccc2)c1F)c1n[nH]c2ncc(-c3ccc(C4N=NN=N4)cc3)cc12 [Example 75, N-(3-(5-(4-(1H-tetrazol-5-yl)phenyl)-1H-pyrazolo[3,4-b]pyridine-3-carbonyl)-2,6-difluorophenyl)-1-phenylmethanesulfonamide]	–	1000 to 10000 nM	–
CCCS(=O)(=O)Nc1c(F)ccc(C(=O)c2n[nH]c3ncc(-c4ccc(O)cc4)cc23)c1F [Example 76, N-(2,6-difluoro-3-(5-(4-hydroxyphenyl)-1H-pyrazolo[3,4-b]pyridine-3-carbonyl)phenyl)propane-1-sulfonamide]	< 500 nM	–	–
